Source: patent publication US20120157401A1, “METHODS FOR TREATING NEUROFIBROMATOSIS” (PTC Therapeutics, Inc., priority 2009, published 2012)
Like-named read-outs stand apart in the source and are kept apart here.

Test system: hypoxia-inducible endogenous VEGF expression
Test: Hypoxia-inducible endogenous VEGF expression ELISA in HeLa cells, dose-response EC50 (Table 3)
Format: cell-based, human
Conditions: Homo sapiens
Outline: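 HeLa cells kept 24-48 h under hypoxia (1% O2, 5% CO2, nitrogen balance) with or without compound, e.g. seven concentrations; secreted VEGF in conditioned medium quantified by ELISA against a standard curve. Parallel Cell Titer Glo viability under identical conditions excludes cytotoxicity.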

[1] = HeLa cells, hypoxic conditions (1% O2), 24-48 hours, VEGF in conditioned media, read-out: ELISA EC50

| Structure (SMILES) | EC50 (HeLa, read-out: ELISA EC50 μM) [µM] | EC50 [1] [µM] |
| --- | --- | --- |
| O=C(Oc1ccc(F)cc1)N1CCc2c([nH]c3ccc(Cl)cc23)C1c1ccc(OCCCCN2CCCC2)cc1 (stereo not shown) [Compound 736] | < 0.008 |  |
| COCCCNCCCCOc1ccc(C2c3[nH]c4ccc(Cl)cc4c3CCN2C(=O)Oc2ccc(F)cc2)cc1 (stereo not shown) [Compound 737] | 0.008 to 0.04 |  |
| O=C(Oc1ccc(F)cc1)N1CCc2c([nH]c3ccc(Cl)cc23)C1c1ccc(OCCCCN2CCOCC2)cc1 (stereo not shown) [Compound 738] | < 0.008 |  |
| O=C(Oc1ccc(F)cc1)N1CCc2c([nH]c3ccc(Cl)cc23)C1c1ccc(OCCCCN2CCCCC2)cc1 (stereo not shown) [Compound 739] | < 0.008 |  |
| CN1CCN(CCCCOc2ccc(C3c4[nH]c5ccc(Cl)cc5c4CCN3C(=O)Oc3ccc(F)cc3)cc2)CC1 (stereo not shown) [Compound 740] | 0.04 to 0.2 |  |
| O=C(Oc1ccc(F)cc1)N1CCc2c([nH]c3ccc(Cl)cc23)C1c1ccc(OCCCCNCCCn2ccnc2)cc1 (stereo not shown) [Compound 741] | 0.04 to 0.2 |  |
| O=C(Oc1ccc(F)cc1)N1CCc2c([nH]c3ccc(Cl)cc23)C1c1ccc(OCCCCn2ccnc2)cc1 (stereo not shown) [Compound 742] |  | < 0.008 |
| O=C(Oc1ccc(F)cc1)N1CCc2c([nH]c3ccc(Cl)cc23)C1c1ccc(OCCCCn2cncn2)cc1 (stereo not shown) [Compound 743] |  | < 0.008 |
| O=C(Oc1ccc(F)cc1)N1CCc2c([nH]c3ccc(Cl)cc23)C1c1ccc(OCCCCCCNCCO)cc1 (stereo not shown) [Compound 772] | < 0.008 |  |
| O=C(Oc1ccc(F)cc1)N1CCc2c([nH]c3ccc(Cl)cc23)C1c1ccc(OCCCCCCN2CCCC2)cc1 (stereo not shown) [Compound 773] | < 0.008 |  |
| CC(C)NCCCCCCOc1ccc(C2c3[nH]c4ccc(Cl)cc4c3CCN2C(=O)Oc2ccc(F)cc2)cc1 (stereo not shown) [Compound 774] | 0.008 to 0.04 |  |
| COCCCNCCCCCCOc1ccc(C2c3[nH]c4ccc(Cl)cc4c3CCN2C(=O)Oc2ccc(F)cc2)cc1 (stereo not shown) [Compound 775] | < 0.008 |  |
| O=C(Oc1ccc(F)cc1)N1CCc2c([nH]c3ccc(Cl)cc23)C1c1ccc(OCCCCCCN2CCOCC2)cc1 (stereo not shown) [Compound 776] | < 0.008 |  |
| O=C(Oc1ccc(F)cc1)N1CCc2c([nH]c3ccc(Cl)cc23)C1c1ccc(OCCCCCCN2CCCCC2)cc1 (stereo not shown) [Compound 777] | < 0.008 |  |
| CN1CCN(CCCCCCOc2ccc(C3c4[nH]c5ccc(Cl)cc5c4CCN3C(=O)Oc3ccc(F)cc3)cc2)CC1 (stereo not shown) [Compound 778] | < 0.008 |  |
| O=C(Oc1ccc(F)cc1)N1CCc2c([nH]c3ccc(Cl)cc23)C1c1ccc(OCCCCCCNCCCn2ccnc2)cc1 (stereo not shown) [Compound 779] | 0.04 to 0.2 |  |
| O=C(Oc1ccc(F)cc1)N1CCc2c([nH]c3ccc(Cl)cc23)C1c1ccc(OCCCCCCn2ccnc2)cc1 (stereo not shown) [Compound 780] |  | < 0.008 |
| O=C(Oc1ccc(F)cc1)N1CCc2c([nH]c3ccc(Cl)cc23)C1c1ccc(OCCCCCCn2cncn2)cc1 (stereo not shown) [Compound 781] |  | < 0.008 |
| O=C(Oc1ccc(Cl)cc1)N1CCc2c([nH]c3ccc(Cl)cc23)C1c1ccc(OCCCCCCNCCO)cc1 (stereo not shown) [Compound 782] | < 0.008 |  |
| O=C(Oc1ccc(Cl)cc1)N1CCc2c([nH]c3ccc(Cl)cc23)C1c1ccc(OCCCCCCN2CCCC2)cc1 (stereo not shown) [Compound 783] | < 0.008 |  |
| CC(C)NCCCCCCOc1ccc(C2c3[nH]c4ccc(Cl)cc4c3CCN2C(=O)Oc2ccc(Cl)cc2)cc1 (stereo not shown) [Compound 784] | < 0.008 |  |
| COCCCNCCCCCCOc1ccc(C2c3[nH]c4ccc(Cl)cc4c3CCN2C(=O)Oc2ccc(Cl)cc2)cc1 (stereo not shown) [Compound 785] | < 0.008 |  |
| O=C(Oc1ccc(Cl)cc1)N1CCc2c([nH]c3ccc(Cl)cc23)C1c1ccc(OCCCCCCN2CCOCC2)cc1 (stereo not shown) [Compound 786] | < 0.008 |  |
| O=C(Oc1ccc(Cl)cc1)N1CCc2c([nH]c3ccc(Cl)cc23)C1c1ccc(OCCCCCCN2CCCCC2)cc1 (stereo not shown) [Compound 787] | < 0.008 |  |
| CN1CCN(CCCCCCOc2ccc(C3c4[nH]c5ccc(Cl)cc5c4CCN3C(=O)Oc3ccc(Cl)cc3)cc2)CC1 (stereo not shown) [Compound 788] | 0.008 to 0.04 |  |

| Structure (SMILES) | EC50 (HeLa, read-out: ELISA EC50 μM) [µM] | EC50 [1] [µM] |
| --- | --- | --- |
| O=C(Oc1ccc(Cl)cc1)N1CCc2c([nH]c3ccc(Cl)cc23)C1c1ccc(OCCCCCCNCCCn2ccnc2)cc1 (stereo not shown) [Compound 789] | 0.04 to 0.2 |  |
| O=C(Oc1ccc(Cl)cc1)N1CCc2c([nH]c3ccc(Cl)cc23)C1c1ccc(OCCCCCCn2ccnc2)cc1 (stereo not shown) [Compound 790] |  | < 0.008 |
| O=C(Oc1ccc(Cl)cc1)N1CCc2c([nH]c3ccc(Cl)cc23)C1c1ccc(OCCCCCCn2cncn2)cc1 (stereo not shown) [Compound 791] |  | < 0.008 |
| O=C(Oc1ccc(F)cc1)N1CCc2c([nH]c3ccc(Cl)cc23)C1c1ccc(OCCn2ccnn2)cc1 (stereo not shown) [Compound 833] |  | 0.04 to 0.2 |
| O=C(Oc1ccc(F)cc1)N1CCc2c([nH]c3ccc(Cl)cc23)C1c1ccc(OCCn2cncn2)cc1 (stereo not shown) [Compound 834] |  | 0.008 to 0.04 |
| O=C(Oc1ccc(F)cc1)N1CCc2c([nH]c3ccc(Cl)cc23)C1c1ccc(OCCn2ccnc2)cc1 (stereo not shown) [Compound 835] |  | 0.04 to 0.2 |
| O=C(Oc1ccc(F)cc1)N1CCc2c([nH]c3ccc(Cl)cc23)C1c1ccc(OCCn2cccn2)cc1 (stereo not shown) [Compound 836] |  | 0.008 to 0.04 |
| O=C(Oc1ccc(Cl)cc1)N1CCc2c([nH]c3ccc(Cl)cc23)C1c1ccc(OCCn2ccnn2)cc1 (stereo not shown) [Compound 839] |  | 0.008 to 0.04 |
| O=C(Oc1ccc(Cl)cc1)N1CCc2c([nH]c3ccc(Cl)cc23)C1c1ccc(OCCn2cncn2)cc1 (stereo not shown) [Compound 840] |  | 0.008 to 0.04 |
| CC(C)(C)OC(=O)N1CCC(COc2ccc(C3c4[nH]c5ccc(Cl)cc5c4CCN3C(=O)Oc3ccc(Cl)cc3)cc2)CC1 (stereo not shown) [Compound 845] |  | 0.04 to 0.2 |
| NCC(O)COc1ccc(C2c3[nH]c4ccc(Cl)cc4c3CCN2C(=O)Oc2ccc(Cl)cc2)cc1 (stereo not shown) [Compound 846] | 0.04 to 0.2 |  |
| CC(=O)NCC(O)COc1ccc(C2c3[nH]c4ccc(Cl)cc4c3CCN2C(=O)Oc2ccc(Cl)cc2)cc1 (stereo not shown) [Compound 847] |  | 0.008 to 0.04 |
| COC(=O)NCC(O)COc1ccc(C2c3[nH]c4ccc(Cl)cc4c3CCN2C(=O)Oc2ccc(Cl)cc2)cc1 (stereo not shown) [Compound 848] |  | < 0.008 |
| CS(=O)(=O)NCC(O)COc1ccc(C2c3[nH]c4ccc(Cl)cc4c3CCN2C(=O)Oc2ccc(Cl)cc2)cc1 (stereo not shown) [Compound 849] |  | 0.008 to 0.04 |
| CNCC(O)COc1ccc(C2c3[nH]c4ccc(Cl)cc4c3CCN2C(=O)Oc2ccc(Cl)cc2)cc1 (stereo not shown) [Compound 850] | 0.04 to 0.2 |  |
| O=C(Oc1ccc(Cl)cc1)N1CCc2c([nH]c3ccc(Cl)cc23)C1c1ccc(OCC(O)Cn2ccnc2)cc1 (stereo not shown) [Compound 867] |  | 0.008 to 0.04 |
| Cc1ccc(OC(=O)N2CCc3c([nH]c4ccc(Cl)cc34)C2c2ccc(OCCCn3cncn3)cc2)cc1 (stereo not shown) [Compound 882] |  | < 0.008 |
| COc1ccc(OC(=O)N2CCc3c([nH]c4ccc(Cl)cc34)C2c2ccc(OCCCn3cncn3)cc2)cc1 (stereo not shown) [Compound 888] |  | < 0.008 |
| O=C(Oc1ccc(F)cc1)N1CCc2c([nH]c3ccc(Cl)cc23)C1c1ccc(OCCCn2ccnc2)cc1 (stereo not shown) [Compound 889] |  | < 0.008 |
| O=C(Oc1ccccc1)N1CCc2c([nH]c3ccc(Cl)cc23)C1c1ccc(OCCCn2cncn2)cc1 (stereo not shown) [Compound 891] |  | < 0.008 |
| O=C(Oc1ccc(F)cc1)N1CCc2c([nH]c3ccc(Cl)cc23)C1c1ccc(OCCCn2cncn2)cc1 (stereo not shown) [Compound 892] |  | < 0.008 |
| O=C(Oc1ccc(Cl)cc1)N1CCc2c([nH]c3ccc(Cl)cc23)C1c1ccc(OCCCN2CCOCC2)cc1 (stereo not shown) [Compound 894] | < 0.008 |  |
| Cc1ccc(OC(=O)N2CCc3c([nH]c4ccc(Cl)cc34)C2c2ccc(OCCCn3ccnc3)cc2)cc1 (stereo not shown) [Compound 900] |  | < 0.008 |
| CC(=O)N1CCN(CCCOc2ccc(C3c4[nH]c5ccc(Cl)cc5c4CCN3C(=O)Oc3ccc(Cl)cc3)cc2)CC1 (stereo not shown) [Compound 903] | < 0.008 |  |
